In patent US11135223B2, “Compositions and methods for inhibiting Dkk-1” (YALE UNIVERSITY, priority 2016, dated 2021):

Molecular target: T1, Dkk-1 (Mus musculus, UniProt O54908)
T1 construct: the primary circulating source of Dkk-1 in during both homeostatic and allergen-challenged conditions is platelets; from tissue; host or cells: living C57BL/6 mice; circulating Dkk-1 released from platelets
T1 sequence (O54908 32-272): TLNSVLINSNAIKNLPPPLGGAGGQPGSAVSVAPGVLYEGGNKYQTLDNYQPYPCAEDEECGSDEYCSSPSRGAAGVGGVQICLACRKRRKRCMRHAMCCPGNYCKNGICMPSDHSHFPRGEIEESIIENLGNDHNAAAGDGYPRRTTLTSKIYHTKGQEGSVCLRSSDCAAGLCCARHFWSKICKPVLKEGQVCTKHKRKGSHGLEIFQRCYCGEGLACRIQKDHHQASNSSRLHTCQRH
Test: House dust mite (HDM)-induced asthma model
Format: in vivo, mice
Text: FIG. 1, comprising FIG. 1A through FIG. 1F, depicts results of experiments showing the characterization of Dkk-1^d/d mice. FIG. 1A depicts flow cytometry analysis of single cell suspensions from spleen of six to ten week-old Dkk-1^d/d mice (n=5) and their wildtype littermate controls (n=3). FIG. 1B depicts flow cytometry analysis of single cell suspensions from bone marrow of six to ten week-old Dkk-1^d/d mice (n=5) and their wildtype littermate controls (n=3). FIG. 1C depicts ELISA analysis of splenic CD4 T cells isolated by MACS and stimulated with anti-CD3 and anti-CD28 mAb (2 μg/ml) for 4 days. FIG. 1C depicts percentage of cells in peripheral blood from ten to twelve week-old Dkk-1^d/d mice (n=5) and their wildtype littermate controls (n=5) measured by HEMAVAT analyzer. WBC (White blood cells), NE (Neutrophils), LY (Lymphocytes), MO (Monocytes), EO (Eosinophils) were counted. FIG. 1D depicts cell number in peripheral blood from ten to twelve week-old Dkk-1^d/d mice (n=5) and their wildtype littermate controls (n=5) measured by HEMAVAT analyzer. WBC (White blood cells), NE (Neutrophils), LY (Lymphocytes), MO (Monocytes), EO (Eosinophils) were counted. FIG. 1F depicts airway resistance of Dkk-1^d/d and C57Bl/6 mice. […] Control group mice (n=3) were challenged with PBS. […] Dkk-1 inhibitor (10 mg/kg) was injected intraperitoneally at day −1, +1, +6, +8, +10, and +12. Student's t-test was used. n.s, not significant. Small horizontal lines indicate the mean (±s.e.m.). *, p<0.05
FIG. 11, comprising FIG. 11A through FIG. 11J, depicts results of experiments showing Dkk-1 facilitates leukocyte migration and regulates leukocyte-platelet aggregate formation in type 2 inflammation. FIG. 11A depicts flow cytometry analysis of CD45^+ cells in lung homogenates from nine-week old Dkk-1^d/d mice and wildtype littermate controls (n=5-6/group) 72 hours after challenge with 30 μg HDM allergen extract. FIG. 11B depicts analysis of percentages of CD45^+CD41^+ cells in peripheral blood from nine-week old Dkk-1^d/d mice and wildtype littermate controls collected at 4 hours and 24 hours after allergen challenge. FIG. 11C depicts flow cytometry analysis of CD45+ cells after Dkk-1 protein (300 ng/mouse) was injected intraperitoneally. FIG. 11D depicts a schematic diagram of Dkk-1 inhibitor treatment protocol for each group (n=5 for each group) in the HDM-induced asthma model. HDM allergen extract (10 μg) was challenged intranasally at the indicated time points. FIG. 11E depicts analysis of CD45^+ leukocytes numbers in BALF and Lung after Dkk-1 inhibitor treatment in the HDM-induced asthma model. FIG. 11F depicts analysis of neutrophils, eosinophils, and CD4 T cell numbers in the lungs after Dkk-1 inhibitor treatment in the HDM-induced asthma model. FIG. 11G depicts analysis of the number of CD4 T cells in mediastinal LNs. FIG. 11H depicts ELISA analysis of cytokines after 4 days of stimulation of med LN cells. FIG. 111 depicts scoring of H&E staining. FIG. 11J depicts scoring of PAS staining.
FIG. 13, comprising FIG. 13A through FIG. 13C, depicts results of experiments showing pharmacological antagonism of Dkk-1 in the HDM-induced asthma model. FIG. 13A depicts neutrophils and eosinophils in BALF. FIG. 13B depicts CD4 T cell percentages in med LNs measured by flow cytometry. FIG. 13C depicts representative images H&E and PAS staining. One-way ANOVA analysis with Dunnet's post-hoc test was performed. **, p<0.005, *, p<0.05.
FIG. 18 depicts results of experiments showing a Dkk-1 monoclonal antibody treatment protects […] mice from house dust mite (HDM)-induced asthma. Six-week-old female C57Bl/6 mice were treated with PBS(n=4), HDM(n=5), HDM and isotype antibody (n=5), and HDM plus Dkk-1 mAb (n=5). 10 μg of HDM was treated intranasally on day 0, 7, 8, 9, 10 and 11. Isotype antibody or Dkk-1 mAb was treated on day −1, +1, +6, +8, and +10. On day 14, mice were sacrificed and the lungs were harvested. fHCD45+ leukocytes were counted by flow cytometry. […]

With `NCC1CCN(c2nccc(-c3ccc4ccccc4c3)n2)CC1` [WAY-262611, (1-(4-(naphthalen-2-yl)pyrimidin-2-yl)piperidin-4-yl)methanamine] the “airway resistance increase by HDM” value (C57Bl/6 mice, Dkk-1 inhibitor 10 mg/kg intraperitoneally, FIG. 1F) was “notably decreased”, the “number of CD4 T cells in mediastinal lymph nodes” value (FIG. 11G) was “reduced” and the “Leukocyte infiltration including CD4 T cells, neutrophils, and eosinophils in BAL fluid and lung tissues” value (both ET (early treatment) and LT (late treatment) protocols, FIG. 11E, 11F, 13A) was “markedly decreased”. The “histopathological scores (H&E, PAS)” value (challenge stage or sensitization stage treatment, FIG. 11I, 11J, 13C) was “inhibition of type 2 inflammatory responses”, the “TH2 cytokine secretion from mediastinal lymph nodes” value (ex vivo stimulation of med LN cells 4 days, FIG. 11H) was “diminished” and the “percentage of CD4 T cells in the lymph nodes” value (mediastinal lymph nodes, FIG. 13) was “did not change”.
